Test: Dissolution of the compound together with gastrodin in the preparation tank
Format: physicochemical
Settings: amounts per formula of the example; with gastrodin in water for injection kept at 80 °C, vacuum, nitrogen gas
Experimental: heating water for injection to 80-98 °C, followed by stirring under vacuum conditions at 30-80 °C, and then adding the reactant under the protection of nitrogen gas or argon gas to obtain a solution of the reactant.
60% of the total amount of water for injection for preparation was added into a preparation tank, heated to 95 °C with slight boiling, and kept at 80 °C. The vacuum was initiated while stirring for 10 minutes, followed by bringing breviscapine along with gastrodin and sodium carbonate weighed according to the amounts in the formula by nitrogen gas into the preparation tank. […] Next, it is sterile-filtered, sterile-filled and freeze-dried by a conventional process to obtain the freeze-dried powder for injection.

Row | Compound | time in which the compound dissolved in the preparation tank
1 | O=c1c(-c2ccc(O)cc2)coc2c([C@@H]3O[C@H](CO)[C@@H](O)[C@H](O)[C@H]3O)c(O)ccc12 [Puerarin] | about 5 minutes
2 | OC[C@H]1O[C@@H](Oc2cc(/C=C/c3cc(O)cc(O)c3)ccc2O)[C@H](O)[C@@H](O)[C@@H]1O | about 5 minutes
3 | OC[C@H]1O[C@@H](Oc2cc(O)cc(/C=C/c3ccc(O)cc3)c2)[C@H](O)[C@@H](O)[C@@H]1O [Polydatin] | about 5 minutes
4 | Oc1ccc(C=Cc2cc(O)cc(O)c2)cc1 [Resveratrol] | about 5 minutes
5 | O=c1cc(-c2ccc(O)c(O)c2)oc2cc(O)c([C@@H]3O[C@H](CO)[C@@H](O)[C@H](O)[C@H]3O)c(O)c12 [Homoorientin] | about 5 minutes
6 | O=C1C[C@@H](c2ccc(O)cc2)Oc2cc(O)cc(O)c21 [Naringenin] | about 5 minutes
7 | Taxinine | about 5 minutes
8 | O=C1c2c(O)cccc2C([C@@H]2O[C@H](CO)[C@@H](O)[C@H](O)[C@H]2O)c2cc(CO)cc(O)c21 (some centres unmarked) [Barbaloin] | about 5 minutes
9 | O=C(O)[C@H]1O[C@@H](Oc2cc3oc(-c4ccccc4)cc(=O)c3c(O)c2O)[C@H](O)[C@@H](O)[C@@H]1O [Baicalin] | about 5 minutes
10 | O=c1cc(-c2ccccc2)oc2cc(O)c(O)c(O)c12 [Baicalein] | about 5 minutes
11 | COc1ccc(/C=C/c2cc(O)cc(O[C@@H]3O[C@H](CO)[C@@H](O)[C@H](O)[C@H]3O)c2)cc1O [Rhapontin] | about 5 minutes
12 | COc1ccc(-c2oc3cc(O)cc(O)c3c(=O)c2O)cc1 [Kaempferide] | about 5 minutes
13 | O=C1CC(c2ccccc2)Oc2cc(O)c(O)c(O)c21 (centres unmarked) [Dihydrobaicalein] | about 5 minutes
14 | Breviscapine | about 5 minutes
15 | O=c1c(O)c(-c2ccc(O)c(O)c2)oc2cc(O)cc(O)c12 [Quercetin] | about 5 minutes
16 | CC(=O)Cc1cc(=O)c2c(C)cc(O)c([C@@H]3O[C@H](CO)[C@@H](O)[C@H](O)[C@H]3O)c2o1 [Aloesin] | about 5 minutes
17 | COc1c(O)cc2c(c1O)[C@@H]1O[C@H](CO)[C@@H](O)[C@H](O)[C@H]1OC2=O [Bergenin] | about 5 minutes
18 | COc1ccc(/C=C/c2cc(O)cc(O[C@@H]3O[C@H](CO)[C@@H](O)[C@H](O)[C@H]3O)c2)cc1 [Deoxyrhapontin] | about 5 minutes
19 | O=c1c(-c2ccc(O)cc2)coc2cc(O[C@@H]3O[C@H](CO)[C@@H](O)[C@H](O)[C@H]3O)ccc12 [Daidzin] | about 5 minutes
20 | Oc1ccc2c(c1)OC[C@H]1c3cc4c(cc3O[C@@H]21)OCO4 [Maackiain] | about 5 minutes
21 | COc1ccc([C@@H]2CC(=O)c3c(O)cc(O)cc3O2)cc1O [Hesperetin] | about 5 minutes
22 | O=c1c(-c2ccc(O)cc2)coc2cc(O)ccc12 [Daidzein] | about 5 minutes

Test: Maximum tolerance dose of gastrodin calculated from intramuscular and intravenous injection in animals
Format: in vivo, human
Settings: calculated at 60 kg from maximum tolerance dose of intramuscular and intravenous injection for animals
Experimental: Gastrodin is a white crystalline powder, odorless, bitter taste; melting point: 153 °C~156 °C; easily soluble in water or methanol and soluble in ethanol. Gastrodin has sedative, hypnotic and analgesic effects, and has low toxicity. It can be calculated from the maximum tolerance dose of intramuscular injection and intravenous injection for animals that the maximum tolerance dose for human is 33.249 g of gastrodin (calculated at 60 kg).

Row | Compound | maximum tolerance dose for human [g]
23 | OCc1ccc(O[C@@H]2O[C@H](CO)[C@@H](O)[C@H](O)[C@H]2O)cc1 [Gastrodin, 4-hydroxymethylphenyl-β-D-glucopyranoside hemihydrate] | 33.249

Reference: patent publication EP2832371B1, “APPLICATION OF GASTRODIN AS SOLUBILIZER AND METHOD FOR PREPARING INJECTION OR POWDER FOR INJECTION” (KPC Pharmaceuticals, Inc., priority 2012, dated 2013)
